Results on 13 compounds are retold here after ChEMBL document CHEMBL1121678, “Antitumor agents. 44. Bis(helenalinyl) esters and related derivatives as novel potent antileukemic agents” (1981).

Common to all, as to format: functional
Test [1] has as its system Mus musculus. Put plainly: In vivo antileukemic activity against P-388 lymphocytic leukemia in BDF1 male mice at 0.6(mg/kg)/day intraperitoneal dose expressed as T/C.
For test [2], the system named is Mus musculus. Put plainly: Antileukemic activity of compound against the P-388 lymphocytic leukemic BDF1 male mice at 0.6(mg/kg)/day, administered intraperitoneally; 11.0/9.66 (Treated/control).
The test system of test [3] is Mus musculus. Nature of the test: Antileukemic activity of compound against the P-388 lymphocytic leukemic BDF1 male mice at 0.6(mg/kg)/day, administered intraperitoneally; 11/9.66 (Treated/control).
For test [4], the system named is Mus musculus. Nature of the test: In vivo antileukemic activity against P-388 lymphocytic leukemia in BDF1 male mice at 60 mg/kg/day intraperitoneal dose expressed as T/C.
Test [5] has as its system Mus musculus. Put plainly: In vivo antileukemic activity against P-388 lymphocytic leukemia in BDF1 male mice at 8(mg/kg)/day intraperitoneal dose expressed as T/C.
Test [6] deals with Mus musculus. Nature of the test: Antileukemic activity of compound against the P-388 lymphocytic leukemic BDF1 male mice at 15(mg/kg)/day, administered intraperitoneally; 11.4/9.66 (Treated/control).
The test system of test [7] is Mus musculus. Put plainly: In vivo antileukemic activity against P-388 lymphocytic leukemia in BDF1 male mice at 25(mg/kg)/day intraperitoneal dose expressed as T/C.
Test [8] concerns Mus musculus. Nature of the test: Antileukemic activity of compound against the P-388 lymphocytic leukemic BDF1 male mice at 8(mg/kg)/day, administered intraperitoneally; […]/[…] (Treated/control).
In test [9] the test system is Mus musculus. Put plainly: In vivo antileukemic activity against P-388 lymphocytic leukemia in BDF1 male mice at 15(mg/kg)/day intraperitoneal dose expressed as T/C.
The test system of test [10] is Mus musculus. Nature of the test: Antileukemic activity of compound against the P-388 lymphocytic leukemic BDF1 male mice at 25(mg/kg)/day, administered intraperitoneally; 13.3/9.66 (Treated/control).
In test [11] the test system is Mus musculus. Put plainly: Antileukemic activity of compound against the P-388 lymphocytic leukemic BDF1 male mice at 15(mg/kg)/day, administered intraperitoneally; 11.9/9.66 (Treated/control).
Test [12] concerns Mus musculus. Put plainly: In vivo antileukemic activity against P-388 Lymphocytic Leukemia in BDF1 male mice at 25(mg/kg)/day intraperitoneal dose expressed as T/C.
The test system of test [13] is Mus musculus. Nature of the test: Antileukemic activity of compound against the P-388 lymphocytic leukemic BDF1 male mice at 25(mg/kg)/day, administered intraperitoneally; 12.3/9.66 (Treated/control).
The subject of test [14] is Mus musculus. Put plainly: In vivo antileukemic activity against P-388 lymphocytic leukemia in BDF1 male mice at 3(mg/kg)/day intraperitoneal dose expressed as T/C.
In test [15] the test system is Mus musculus. Put plainly: Antileukemic activity of compound against the P-388 lymphocytic leukemic BDF1 male mice at 8(mg/kg)/day, administered intraperitoneally; 15.7/9.66 (Treated/control).
Test [16] relates to Mus musculus. Nature of the test: Antileukemic activity of compound against the P-388 lymphocytic leukemic BDF1 male mice at 60 mg/kg/day, administered intraperitoneally; 3.0/9.66 (Treated/control). To be noted: route intraperitoneal.
The subject of test [17] is Mus musculus. Put plainly: In vivo antileukemic activity against P-388 Lymphocytic Leukemia in BDF1 male mice at 60 mg/kg/day intraperitoneal dose expressed as T/C.
Test [18] concerns Mus musculus. Put plainly: In vivo antileukemic activity against P-388 Lymphocytic Leukemia in BDF1 male mice at 15(mg/kg)/day intraperitoneal dose expressed as T/C.
For test [19], the system named is Mus musculus. Put plainly: Antileukemic activity of compound against the P-388 lymphocytic leukemic BDF1 male mice at 3(mg/kg)/day, administered intraperitoneally; 12.9/9.66 (Treated/control).
Test [20] deals with Mus musculus. Put plainly: Antileukemic activity of compound against the P-388 lymphocytic leukemic BDF1 male mice at 60 mg/kg/day, administered intraperitoneally; 5.8/9.66 (Treated/control). The following applies: route intraperitoneal.
Test [21] concerns Mus musculus. Put plainly: In vivo antileukemic activity against P-388 lymphocytic leukemia in BDF1 male mice at 30(mg/kg)/day intraperitoneal dose expressed as T/C.
The subject of test [22] is Mus musculus. Nature of the test: Antileukemic activity of compound against the P-388 lymphocytic leukemic BDF1 male mice at 8(mg/kg)/day, administered intraperitoneally; 13.8/9.66 (Treated/control).
Test [23] has as its system Mus musculus. Nature of the test: Antileukemic activity of compound against the P-388 lymphocytic leukemic BDF1 male mice at 30(mg/kg)/day, administered intraperitoneally; 16.2/9.66 (Treated/control).
In test [24] the test system is Mus musculus. Nature of the test: Antileukemic activity of compound against the P-388 lymphocytic leukemic BDF1 male mice at 15(mg/kg)/day, administered intraperitoneally; 25.2/9.66 (Treated/control).
Test [25] concerns Mus musculus. Put plainly: Antileukemic activity of compound against the P-388 lymphocytic leukemic BDF1 male mice at 3(mg/kg)/day, administered intraperitoneally; 13.8/9.66 (Treated/control).
In test [26] the test system is Mus musculus. Nature of the test: In vivo antileukemic activity against P-388 lymphocytic leukemia in BDF1 male mice at 4(mg/kg)/day intraperitoneal dose expressed as T/C.
In test [27] the test system is Mus musculus. Nature of the test: Antileukemic activity of compound against the P-388 lymphocytic leukemic BDF1 male mice at 4(mg/kg)/day, administered intraperitoneally; 11.0/9.66 (Treated/control).
Test [28] deals with Mus musculus. Put plainly: Antileukemic activity of compound against the P-388 lymphocytic leukemic BDF1 male mice at 2(mg/kg)/day, administered intraperitoneally; 11.6/9.66 (Treated/control).
For test [29], the system named is Mus musculus. Nature of the test: Antileukemic activity of compound against the P-388 lymphocytic leukemic BDF1 male mice at 60 mg/kg/day, administered intraperitoneally; 12.6/9.66 (Treated/control). To be noted: route intraperitoneal.
In test [30] the test system is Mus musculus. Put plainly: Antileukemic activity of compound against the P-388 lymphocytic leukemic BDF1 male mice at 30(mg/kg)/day, administered intraperitoneally; 15.2/9.66 (Treated/control).
In test [31] the test system is Mus musculus. Put plainly: In vivo antileukemic activity against P-388 lymphocytic leukemia in BDF1 male mice at 2(mg/kg)/day intraperitoneal dose expressed as T/C.
Test [32] deals with Mus musculus. Put plainly: Antileukemic activity of compound against the P-388 lymphocytic leukemic BDF1 male mice at 15(mg/kg)/day, administered intraperitoneally; 13.6/9.66 (Treated/control).
Test [33] relates to Mus musculus. Put plainly: Antileukemic activity of compound against the P-388 lymphocytic leukemic BDF1 male mice at 15(mg/kg)/day, administered intraperitoneally; 13.2/9.66 (Treated/control).
Test [34] concerns Mus musculus. Put plainly: Antileukemic activity of compound against the P-388 lymphocytic leukemic BDF1 male mice at 15(mg/kg)/day, administered intraperitoneally (Treated/control).
Test [35] deals with Mus musculus. Nature of the test: Antileukemic activity of compound against the P-388 lymphocytic leukemic BDF1 male mice at 8(mg/kg)/day, administered intraperitoneally; 11.8/9.66 (Treated/control).
Test [36] relates to Mus musculus. Nature of the test: In vivo antileukemic activity against P-388 lymphocytic leukemia in BDF1 male mice at 5(mg/kg)/day intraperitoneal dose expressed as T/C.
The test system of test [37] is Mus musculus. Nature of the test: Antileukemic activity of compound against the P-388 lymphocytic leukemic BDF1 male mice at 5(mg/kg)/day, administered intraperitoneally; 11.8/9.66 (Treated/control).
In test [38] the test system is Mus musculus. Put plainly: Antileukemic activity of compound against the P-388 lymphocytic leukemic BDF1 male mice at 15(mg/kg)/day, administered intraperitoneally; 11.1/9.66 (Treated/control).
Test [39] relates to Mus musculus. Put plainly: Antileukemic activity of compound against the P-388 lymphocytic leukemic BDF1 male mice at 15(mg/kg)/day, administered intraperitoneally; 11.0/9.66 (Treated/control).
The subject of test [40] is Mus musculus. Nature of the test: Antileukemic activity of compound against the P-388 lymphocytic leukemic BDF1 male mice at 25(mg/kg)/day, administered intraperitoneally; 10.6/9.66 (Treated/control).
Test [41] relates to Mus musculus. Nature of the test: Antileukemic activity of compound against the P-388 lymphocytic leukemic BDF1 male mice at 0.6(mg/kg)/day, administered intraperitoneally; 11.6/9.66 (Treated/control).
Test [42] concerns Mus musculus. Nature of the test: Antileukemic activity of compound against the P-388 lymphocytic leukemic BDF1 male mice at 8(mg/kg)/day, administered intraperitoneally; 14.0/9.66 (Treated/control).
Test [43] relates to Mus musculus. Put plainly: Antileukemic activity of compound against the P-388 lymphocytic leukemic BDF1 male mice at 15(mg/kg)/day, administered intraperitoneally; 18.7/9.66 (Treated/control).
Test [44] deals with Mus musculus. Nature of the test: Antileukemic activity of compound against the P-388 lymphocytic leukemic BDF1 male mice at 60 mg/kg/day, administered intraperitoneally; 12.7/9.66 (Treated/control). To be noted: route intraperitoneal.
The test system of test [45] is Mus musculus. Nature of the test: Antileukemic activity of compound against the P-388 lymphocytic leukemic BDF1 male mice at 30(mg/kg)/day, administered intraperitoneally; 15.4/9.66 (Treated/control).

The T/C is the ratio of treated to control. With `O=C(O)CC(=O)O` [MALONIC ACID], in test [1], the T/C amounted to 114%. Also, the “Average survival (days)” value in [2] worked out at 11.
With `CCOC(=O)CC(=O)OCC` [MALONIC ACID DIETHYL ESTER], in [3], the “Average survival (days)” value is given as 11. The compound also returned a T/C in test [4] of 114%.
For the compound `C[C@@H]1C[C@H]2OC(=O)[C@@H](C)[C@H]2[C@H](O)[C@]2(C)C(=O)C=C[C@@H]12`, the T/C stood at 111% in test [5], 138% in test [7] and 118% in test [9]. For the same compound, the entries for the “Average survival (days)” value in test [6], in test [8] and in test [10] were 11.4, 10.7 and 13.3, respectively.
For the compound `C=C1C(=O)O[C@@H]2C[C@@H](C)[C@@H]3C=CC(=O)[C@@]3(C)[C@@H](O)[C@H]12` [HELENALIN], the “Average survival (days)” value was determined as 11.9 in [11]; 12.3 in test [13]; 15.7 in [15]; 3 in [16]; 12.9 in test [19]. Also, the T/C came out at 162% in test [5]; 127% in test [12]; 134% in [14]; 31% in [17]; 123% in [18].
As to `C=C1C(=O)O[C@@H]2C[C@@H](C)[C@@H]3C=CC(=O)[C@@]3(C)[C@@H](OC(=O)CC(=O)O[C@H]3[C@@H]4C(=C)C(=O)O[C@@H]4C[C@@H](C)[C@@H]4C=CC(=O)[C@]43C)[C@H]12`, the “Average survival (days)” value in test [20] worked out at 5.8; in [22], 13.8; in [23], 16.2; in test [24], 25.2; in test [25] it was 13.8. The T/C in test [21] is 168%; in test [5], 143%; in [14], 143%; in test [4], 60%; in [9], 261%.
As for `C=C1C(=O)O[C@@H]2C[C@@H](C)[C@@H]3CCC(=O)[C@@]3(C)[C@@H](OC(=O)CCC(=O)O[C@H]3[C@@H]4C(=C)C(=O)O[C@@H]4C[C@@H](C)[C@@H]4CCC(=O)[C@]43C)[C@H]12`, the T/C was determined as 157% in test [21]; 114% in test [26]; 130% in test [4]; 141% in test [9]; 120% in [31]. In addition, the “Average survival (days)” value is listed as 11 in test [27]; 11.6 in [28]; 12.6 in test [29]; 15.2 in test [30]; 13.6 in [32].
Take `C=C1C(=O)O[C@@H]2C[C@@H](C)[C@@H]3CCC(=O)[C@@]3(C)[C@@H](OC(=O)CC(=O)O[C@H]3[C@@H]4C(=C)C(=O)O[C@@H]4C[C@@H](C)[C@@H]4CCC(=O)[C@]43C)[C@H]12`: the T/C turned out to be 122% in test [5] and 137% in [34]. Also, the “Average survival (days)” value in test [33] was 13.2; in test [35] it was 11.8.
In the case of `CC1C(=O)O[C@@H]2C[C@@H](C)[C@@H]3CCC(=O)[C@@]3(C)[C@@H](OC(=O)CC(=O)O[C@H]3[C@@H]4C(C)C(=O)O[C@@H]4C[C@@H](C)[C@@H]4CCC(=O)[C@]43C)[C@H]12` (stereo partly drawn), the T/C turned out to be 122% in [36] and 115% in [9]. The “Average survival (days)” value in [37] came to 11.8; in [38], 11.1.
Regarding `C=C1C(=O)O[C@@H]2C[C@@H](C)[C@@H]3CCC(=O)[C@@]3(C)[C@@H](OC(=O)CC(=O)OCC)[C@H]12`, the “Average survival (days)” value in test [39] amounted to 11. Further, in [4], the T/C was found to be 114%.
`C=C1C(=O)O[C@@H]2C[C@@H](C)[C@@H]3CCC(=O)[C@@]3(C)[C@@H](O)[C@H]12` came in with a T/C in test [4] of 110%. Besides, the “Average survival (days)” value in [40] came out at 10.6.
With `CCOC(=O)CCC(=O)OCC` [SUCCINIC ACID DIETHYL ESTER], the T/C in test [4] was 120%. Also, the “Average survival (days)” value in test [41] turned out to be 11.6.
In turn, `O=C(O)CCC(=O)O` [SUCCINIC ACID] returned a T/C in test [4] of 111%.
`C[C@@H]1C[C@H]2OC(=O)[C@@H](C)[C@H]2[C@H](OC(=O)CCC(=O)O[C@H]2[C@@H]3[C@H](C)C(=O)O[C@@H]3C[C@@H](C)[C@@H]3C=CC(=O)[C@]32C)[C@]2(C)C(=O)C=C[C@@H]12`: the “Average survival (days)” value was found to be 14 in test [42], 18.7 in test [43], 12.7 in test [44] and 15.4 in [45]. Further, the T/C is 159% in test [21], 145% in [5], 131% in [4] and 194% in test [9].
